In patent US20240025892A1 (priority 2020, published 2024):
pIC50: −log10 of the molar value.

Experiments:
[1] = target: Recombinant SIK2 (Homo sapiens (Human), UniProt Q9H0K1); test: biochemical; conditions: recombinant SIK2 2.5 nM, 1 μM ATP; read-out: SIK2 IC50
Experimental: Assays were performed in base reaction buffer (20 mM Hepes (pH 7.5), 10 mM MgCl2, 1 mM EGTA, 0.02% Brij35, 0.02 mg/mL BSA, 0.1 mM Na3VO4, 2 mM DTT, 1% DMSO). Compounds were dissolved in 100% DMSO in a 10 mM stock. […] Assays were performed for 20 minutes at room temperature, after which time ^33P-ATP (10 μCi/μL) was added followed by incubation for another 120 minutes at room temperature. Thereafter, radioactivity incorporated into the pEY peptide substrate was detected by filter-binding method. Kinase activity data were expressed as the percent remaining kinase activity in test samples compared to DMSO reactions. IC50 values and curve fits were obtained using Prism (GraphPad Software).

[2] = system: CRTC2 (TORC2); test: CRTC2 nuclear translocation (PathHunter U2OS); format: cell-based; conditions: maximal CRTC2 nuclear translocation, U2OS cells, 90 minutes, maximum dose 10 μM
Description: PathHunter® Nuclear Translocation cell lines are engineered to co-express two fusion proteins: a) Enzyme Donor (ED) tagged target protein; b) an Enzyme Acceptor (EA) tagged TAZ domain, derived from the CBP/P300 transcription factor, that localizes to the nucleus. Activation of the signaling pathway induces translocation of the ED-tagged target protein into the nucleus, which will force complementation of the two enzyme fragments, and result in the formation of a functional enzyme that will hydrolyze substrate and generate a chemiluminescent signal. U2OS CRTC2 (TORC2) translocation assays were performed in 384 well plates at Eurofins DiscoverX (Freemont, CA). Cells were treated with compounds for 90 minutes in experimental duplicates in 5 point dose response format (4-fold serial dilutions with a maximum dose of 10 μM) followed by […] readout on an Envision 2104 Multilabel Reader. In all experiments, forskolin was used as a positive control and maximal CRTC2 nuclear translocation induced by each compound is expressed as a percentage of the signal stimulated by forskolin.
Representative data are shown in FIG. 4A and presented as percent of the positive control (forskolin) signal.

[3] = system: RANKL; test: RANKL gene expression in Ocy454 cells (RT-qPCR); conditions: maximal RANKL fold induction versus DMSO, four hours;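 also: Ocy454 cells moved to 37 °C for osteocytic differentiation before compound exposure, RANKL mRNA by SYBR Green qRT-PCR, 2^−ΔΔCT with β-actin normalization, duplicate wells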

Sequence of Recombinant SIK2 (Q9H0K1 whole entry): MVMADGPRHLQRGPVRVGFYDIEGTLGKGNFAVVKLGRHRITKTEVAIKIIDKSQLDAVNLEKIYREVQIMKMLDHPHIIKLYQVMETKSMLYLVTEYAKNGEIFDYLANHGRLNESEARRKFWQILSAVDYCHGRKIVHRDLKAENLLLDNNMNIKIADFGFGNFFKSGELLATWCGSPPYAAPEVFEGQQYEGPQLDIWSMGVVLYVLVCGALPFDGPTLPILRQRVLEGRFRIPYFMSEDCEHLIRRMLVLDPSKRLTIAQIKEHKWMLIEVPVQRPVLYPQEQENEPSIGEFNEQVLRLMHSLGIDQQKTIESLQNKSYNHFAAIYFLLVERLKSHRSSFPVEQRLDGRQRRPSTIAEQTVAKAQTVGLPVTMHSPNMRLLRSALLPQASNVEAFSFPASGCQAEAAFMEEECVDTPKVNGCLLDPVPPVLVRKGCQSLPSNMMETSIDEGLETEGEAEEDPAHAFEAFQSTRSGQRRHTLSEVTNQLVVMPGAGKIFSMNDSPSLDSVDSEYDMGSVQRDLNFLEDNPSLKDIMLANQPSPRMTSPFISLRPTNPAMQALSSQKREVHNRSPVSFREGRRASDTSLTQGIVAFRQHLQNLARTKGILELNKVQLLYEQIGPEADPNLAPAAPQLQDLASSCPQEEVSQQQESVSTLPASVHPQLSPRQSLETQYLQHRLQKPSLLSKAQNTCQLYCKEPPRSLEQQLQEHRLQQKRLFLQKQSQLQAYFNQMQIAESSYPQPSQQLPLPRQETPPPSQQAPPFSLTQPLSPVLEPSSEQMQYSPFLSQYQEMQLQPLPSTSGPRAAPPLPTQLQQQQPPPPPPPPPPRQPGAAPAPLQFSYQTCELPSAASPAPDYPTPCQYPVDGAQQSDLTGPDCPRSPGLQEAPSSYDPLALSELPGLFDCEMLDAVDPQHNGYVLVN

| Structure (SMILES) | pIC50 [1] | CRTC2 Efficacy (% of forskolin) [2] | RANKL Fold Induction [3] [fold] |
| --- | --- | --- | --- |
| N#Cc1ccc(-c2cnc3cc(C(=O)NCc4ccnnc4)ccn23)cc1 [Example 20, 3-(4-cyanophenyl)-N-(pyridazin-4-ylmethyl)imidazo[1,2-a]pyridine-7-carboxamide] | 6.96 | 9.4 % of forskolin | – |
| CCn1cc(-c2ccn3c(-c4ccc(C#N)cc4)cnc3c2)cn1 [Example 45, 4-[7-(1-Ethylpyrazol-4-yl)imidazo[1,2-a]pyridin-3-yl]benzonitrile] | – | 85 % of forskolin | 9.41 |
| N#Cc1ccc(-c2cnc3cc(C(=O)NCc4cnccn4)ccn23)cc1 [Example 21, 3-(4-cyanophenyl)-N-(pyrazin-2-ylmethyl)imidazo[1,2-a]pyridine-7-carboxamide] | 6.93 | 9.9 % of forskolin | – |
| N#Cc1ccc(-c2cnc3cc(C(=O)NCc4ccco4)ccn23)cc1 [Example 27, 3-(4-cyanophenyl)-N-(furan-2-ylmethyl)imidazo[1,2-a]pyridine-7-carboxamide] | 6.88 | 5.3 % of forskolin | – |
| N#Cc1ccc(-c2cnc3nc(C(=O)NCc4cccnc4)ccn23)cc1 [Example 36, 3-(4-cyanophenyl)-N-(3-pyridylmethyl)imidazo[1,2-a]pyrimidine-7-carboxamide] | 5.28 | 2.5 % of forskolin | – |
| CC1(COc2ccn3c(-c4ccc5cccc(N6CCC(N)CC6)c5n4)cnc3c2)COC1 [Example 13, 1-(2-(7-((3-Methyloxetan-3-yl)methoxy)imidazo[1,2-a]pyridin-3-yl)quinolin-8-yl)piperidin-4-amine] | 8.38 | 140.6 % of forskolin | – |
| N#Cc1ccc(-n2cnc3cc(C(=O)NCc4cccnc4)ccc32)cc1 [Example 32, 1-(4-cyanophenyl)-N-(3-pyridylmethyl)benzimidazole-5-carboxamide] | – | 10.6 % of forskolin | – |
| N#Cc1ccc(-n2cnc3cc(C(=O)NCc4nc5ccccc5[nH]4)ccc32)cc1 [Example 34, N-((1H-benzo[d]imidazol-2-yl)methyl)-1-(4-cyanophenyl)-1H-benzo[d]imidazole-5-carboxamide] | 7.70 | 14 % of forskolin | – |
| CC1(COc2ccc3c(c2)ncn3-c2ccc3cccc(N4CCC5(CCNC5)C4)c3n2)COC1 (stereo not drawn) [Example 6, 2-(5-((3-methyloxetan-3-yl)methoxy)-1H-benzo[d]imidazol-1-yl)-8-(2,7-diazaspiro[4.4]nonan-2-yl)quinoline] | 8.24 | 127.8 % of forskolin | – |
| CCc1nnc(-c2c(F)cc(-c3cnc4cc(-c5cnn(C)c5)ccn34)cc2F)o1 [Example 58, 2-(2,6-difluoro-4-(7-(1-methyl-1H-pyrazol-4-yl)imidazo[1,2-a]pyridin-3-yl)phenyl)-5-ethyl-1,3,4-oxadiazole] | 5.97 | – | 1.26 |
| Cn1cnc(-c2cccc3ccc(-n4cnc5cc(OCC6(C)COC6)ccc54)nc23)c1 [Example 18, 8-(1-Methyl-1H-imidazol-4-yl)-2-(5-((3-methyloxetan-3-yl)methoxy)-1H-benzo[d]imidazol-1-yl)quinoline] | 6.73 | – | 7.49 |
| CCn1cc(-c2ccn3c(-c4ccc(C#N)nc4)cnc3c2)cn1 [Example 46, 5-(7-(1-ethyl-1H-pyrazol-4-yl)imidazo[1,2-a]pyridin-3-yl)picolinonitrile] | 7.85 | – | 3.44 |
| CCn1nnc(-c2ccn3c(-c4ccc(C#N)cc4)cnc3c2)n1 [Example 67, 4-[7-(2-Ethyltetrazol-5-yl)imidazo[1,2-a]pyridin-3-yl]benzonitrile] | 6.64 | – | 0.47 |
| Cc1ccc(CN(C)C(=O)c2ccn3c(-c4ccc(C#N)cc4)cnc3c2)cn1 [Example 30, 3-(4-Cyanophenyl)-N-methyl-N-((6-methylpyridin-3-yl)methyl)imidazo[1,2-a]pyridine-7-carboxamide] | 5.77 | 1.7 % of forskolin | – |
